Assay results published in patent US9657351B2, “MRNA-based gene expression for personalizing patient cancer therapy with an MDM2 antagonist” (Hoffmann-La Roche Inc., priority 2013, dated 2017).
Values joined by “and” are separate entries in the source; they are usually repeats but may differ in a detail not shown here. Equal values may be shown once.

Legend:
[1] = tested on: 22Rv1; test: COMPOUND A In Vitro Assay; type: cell-based, human; conditions: for IC50: Homo sapiens
Source text: (§1) To generate an MDM2 antagonist therapy predictive signature, the response of MDM2 antagonist therapy in vitro with gene expression profiling (FIG. 1) is combined. A bank of 287 human cancer cell lines, collectively termed the Cell Lines for Oncology/Chugai ACcumulative Tumour EncycLopedia (CELLO/CACTEL), representing a broad array of diverse human cancer tumor types are subject to evaluation using several high-throughput genomic technology platforms. The mutational status of nucleic acids from each cell line is determined by exome sequencing. Messenger RNA (mRNA) expression levels at baseline, prior to MDM2 antagonist therapy, are obtained via RNA sequencing. MDM2 antagonist therapy COMPOUND A, sometimes referred to herein as RG7112, responses are obtained by assays known to those skilled in the art such as RNA sequencing and microarray measurement using Gene Chip Human Genome U133 Plus 2.0 Array. The MDM2 therapy responses are obtained by high throughout screening assays. Depending on their responses to COMPOUND A these cell lines are classified as either sensitive, defined as IC50<=1, or resistant, defined as IC50>=10.
(§2) 281 cells are treated with MDM2 antagonists and the IC50 (therapy response) is generated. The cell lines span a broad range of tumor cell types of derivation.

[2] = tested on: DU145; test: COMPOUND A In Vitro Assay; type: cell-based, human
Source text: as §1, §2

[3] = tested on: KMS-12-BM; test: COMPOUND A In Vitro Assay; type: cell-based, human; conditions: TP53 mutant cell line
Source text: as §1, §2

[4] = tested on: KMS-26; test: COMPOUND A In Vitro Assay; type: cell-based, human; conditions: for IC50: Homo sapiens
Source text: as §1, §2

[5] = tested on: LN-18; test: COMPOUND A In Vitro Assay; type: cell-based, human; conditions: for IC50: Homo sapiens
Source text: as §1, §2

[6] = tested on: MKN-45; test: COMPOUND A In Vitro Assay; type: cell-based, human; conditions: for IC50: Homo sapiens
Source text: as §1, §2

[7] = tested on: NCI-H2122; test: COMPOUND A In Vitro Assay; type: cell-based, human; conditions: for IC50: Homo sapiens
Source text: as §1, §2

[8] = tested on: NCI-H226; test: COMPOUND A In Vitro Assay; type: cell-based, human; conditions: for IC50: Homo sapiens
Source text: as §1, §2

[9] = tested on: SW1463; test: COMPOUND A In Vitro Assay; type: cell-based, human
Source text: as §1, §2

[10] = tested on: MDM2 mRNA; test: NO21279 pharmacodynamic response, MDM2 mRNA by quantitative real-time PCR in leukemia cells; type: in vivo, human
Procedure: The performance of the MDM2 antagonist predictive mRNA response signature is tested in the clinical setting with specimens from the NO21279 leukemia trial (FIG. 1). 28 AML patients treated at the MTD are enrolled and completed pretreatment and C1D10 (cycle 1, day 10) sampling. […] The clinical endpoint in NO21279 was divided into 4 categories: Complete Response (CR), Morphologic Leukemia-Free State (MLFS), Hematologic Improvement (HI), and Progressive Disease (PD). Blood leukemia samples and bone marrow biopsy samples were collected at baseline screening, after a single dose (cycle 1 day 2, C1D2) and on last day of dosing (cycle 1, day 10, C1D10) and isolated via MACS® separation^11. The early pharmacodynamic effect of MDM2 antagonism in blood leukemia samples was assessed by measuring MDM2 RT PCR change between baseline and C1D10. Global gene expression profiles were generated for the peripheral blood leukemia cells and bone marrow biopsy samples obtained at baseline, C1D2 and C1D10.
MDM2 mRNA concentrations were assessed at Roche Molecular Systems by quantitative real-time PCR with 50 ng total RNA from MACs isolated leukemia cells from blood. TaqMan (Invitrogen, Carlsbad, Calif., USA) probes were designed to detect MDM2 mRNA and the reference mRNA, beta-glucuronidase, simultaneously using two different fluorescent reporters. Gene expression profiles were generated using Affymetrix U133 Plus 2.0 microarrays. Probset ID's for the each of the four genes on said U133 Plus 2.0 microarray are: 209375_s_at (for XPC); 205386_s_at and 211832_s_at (MDM2); 211692_s_at (BBC3); 207039_at and 211156_at (CDKN2A). […] The predictive patient signature score according to the present invention is then calculated using the following equation: patient signature score=GMDM2+GXPC+GBBC3−GCDKN2A. […] For example, for the patient data reported in Table 9 (Example 5), G is log 2 of the mRNA probeset expression of the relevant gene as measured with Affymetrix U133 Plus 2.0 microarrays.

[11] = tested on: BBC3 mRNA; test: NO21279 blood cell gene expression on treatment, Affymetrix U133 Plus 2.0 microarray; type: in vivo, human; conditions: blood cell specimens, C1D10; IQR 1.13-1.99
Procedure: (§3) MDM2 mRNA concentrations were assessed at Roche Molecular Systems by quantitative real-time PCR with 50 ng total RNA from MACs isolated leukemia cells from blood. TaqMan (Invitrogen, Carlsbad, Calif., USA) probes were designed to detect MDM2 mRNA and the reference mRNA, beta-glucuronidase, simultaneously using two different fluorescent reporters. Gene expression profiles were generated using Affymetrix U133 Plus 2.0 microarrays. Probset ID's for the each of the four genes on said U133 Plus 2.0 microarray are: 209375_s_at (for XPC); 205386_s_at and 211832_s_at (MDM2); 211692_s_at (BBC3); 207039_at and 211156_at (CDKN2A). The “mRNA expression level” for one of the 4 genes according to the present invention is the accumulation of all counts falling into the range of exons of a gene (e.g. MDM2). […] The predictive patient signature score according to the present invention is then calculated using the following equation: patient signature score=GMDM2+GXPC+GBBC3−GCDKN2A. G in the formula stands for log 2 transformed mRNA expression levels as obtained from patient samples, for example blood leukemia or bone marrow biopsy samples. For example, for the patient data reported in Table 9 (Example 5), G is log 2 of the mRNA probeset expression of the relevant gene as measured with Affymetrix U133 Plus 2.0 microarrays.
(§4) Each intensity value is then log 2 transformed.

[12] = tested on: CDKN2A mRNA; test: as above; type: in vivo, human; conditions: C1D10; IQR 0.09-0.38
Procedure: as §3, §4

[13] = tested on: MDM2 mRNA; test: as above; type: in vivo, human; conditions: blood cell specimens, C1D10; IQR 1.71-5.00
Procedure: as §3, §4

[14] = tested on: P53; test: NP21280 solid tumor trial, tumor biopsy biomarker (p53 IHC); type: in vivo, human; conditions: at C1D10, p=2.88×10−3
Procedure: The predictive mRNA signature is also evaluated in two solid tumor trials (FIG. 1). […] In both clinical trials, a biomarker package that enabled assessment of p53 pathway activation is assessed (p53 IHC, p21 IHC, MDM2 mRNA, and Ki67), MDM2 inhibition activates the P53 pathway and decreases cell proliferation.

[15] = clinical; conditions: both, human, in vivo, AUC0-24, median

Compound: CCOc1cc(C(C)(C)C)ccc1C1=N[C@@](C)(c2ccc(Cl)cc2)[C@@](C)(c2ccc(Cl)cc2)N1C(=O)N1CCN(CCCS(C)(=O)=O)CC1 [COMPOUND A]
- response to COMPOUND A (sensitive / resistant) ([1]; 22Rv1, TP53 mutant cell line): sensitive (sensitive, defined as IC50<=1)
- IC50 ([1]; 22Rv1, 22Rv1, Prostate, TP53 Mutant): 970 nM
- IC50 ([1]; 22Rv1, 22Rv1 cells): 1000 nM
- IC50 ([2]; Homo sapiens, DU-145, Prostate, TP53 Mutant): 1000 nM
- response to COMPOUND A (sensitive / resistant) ([2]; TP53 mutant cell line): sensitive (sensitive, defined as IC50<=1)
- response to COMPOUND A (sensitive / resistant) [3]: sensitive (sensitive, defined as IC50<=1)
- IC50 ([4]; KMS-26, KMS-26, Lymphocyte, TP53 Mutant): 450 nM
- IC50 ([4]; KMS-26, KMS-26 cells): 500 nM
- response to COMPOUND A (sensitive / resistant) ([4]; KMS-26, TP53 mutant cell line): sensitive (sensitive, defined as IC50<=1)
- IC50 ([5]; LN-18, LN-18, Brain, temporal lobe, TP53 Mutant): 670 nM
- IC50 ([5]; LN-18, LN-18 cells): 700 nM
- response to COMPOUND A (sensitive / resistant) ([5]; LN-18, TP53 mutant cell line): sensitive (sensitive, defined as IC50<=1)
- IC50 ([6]; MKN-45, MKN-45, Stomach, TP53 Mutant): 180 nM
- IC50 ([6]; MKN-45, MKN-45 cells): 200 nM
- response to COMPOUND A (sensitive / resistant) ([6]; MKN-45, TP53 mutant cell line): sensitive (sensitive, defined as IC50<=1)
- IC50 ([7]; NCI-H2122, NCI-H2122, Lung, TP53 Mutant): 160 nM
- IC50 ([7]; NCI-H2122, NCI-H2122 cells): 200 nM
- response to COMPOUND A (sensitive / resistant) ([7]; NCI-H2122, TP53 mutant cell line): sensitive (sensitive, defined as IC50<=1)
- IC50 ([8]; NCI-H226, NCI-H226, Lung, TP53 Mutant): 130 nM
- IC50 ([8]; NCI-H226, NCI-H226 cells): 100 nM
- response to COMPOUND A (sensitive / resistant) ([8]; NCI-H226, TP53 mutant cell line): sensitive (sensitive, defined as IC50<=1)
- IC50 ([9]; Homo sapiens, Intestine, large, rectum, TP53 Mutant): 1000 nM
- response to COMPOUND A (sensitive / resistant) ([9]; TP53 mutant cell line): sensitive (sensitive, defined as IC50<=1)
- median MDM2 mRNA expression increase over baseline ([10]; C1D10 vs baseline, IQR 1.62-4.59, NO21279): 2.46 times
- MDM2 mRNA (RT-PCR) fold change over baseline (C1D10), median increase ([10]; all patients, IQR 1.62-4.59): 2.46x (IQR:
- MDM2 mRNA (RT-PCR) fold change over baseline (C1D10) ([10]; individual AML patients (no. 1-28), NO21279, blood leukemia cells, listed as RG7112): 2.23 fold and 5.67 fold and 5.05 fold and 9.66 fold and 1.79 fold and 23.00 fold and 2.01 fold and 1.72 fold and 5.07 fold and 3.20 fold and 4.35 fold and 1.27 fold and 2.51 fold and 0.96 fold and 1.69 fold and 2.26 fold and 1.52 fold and 3.88 fold and 2.65 fold and 5.11 fold and 9.46 fold and 1.00 fold and 1.59 fold and 1.67 fold and 3.00 fold
- median BBC3 mRNA expression over baseline [11]: 1.45 times
- median CDKN2A mRNA expression decreased over baseline [12]: 0.26 times
- median MDM2 mRNA expression over baseline [13]: 2.37 times
- P53 concentration change from baseline [14]: significantly increase
- AUC(0-t) [15]: 190 µg·h/mL
